Source: US20260191861A1, “INFLAMMASOME AND VEGF INHIBITION FOR RETINAL VASCULAR DISEASES” (University of Virginia Patent Foundation, priority 2022, published 2026)
Entries after “also recorded” stand apart in the source; their conditions may differ.

Columns and labels:
caspase-1 = experiment: Rhegmatogenous retinal detachment (RRD) model: retinal caspase-1 cleavage by immunoblot; type: in vivo, mouse
Procedure: (§1) All experiments involving animals were approved by the University of Virginia Institutional Animal Care and Use Committee (IACUC) and adhered to the Association for Research in Vision and Ophthalmology (ARVO) Statement for the Use of Animals in Ophthalmic and Vision Research. Animal subjects were male and female mice aged 6 to 10 weeks. Wild type C57BL/6J mice were obtained from the Jackson Laboratory (Bar Harbor, ME, USA). To anesthetize mice for study procedures, ketamine hydrochloride (100 mg/kg; Ft. Dodge Animal Health, Overland Park, KS, USA) and xylazine (10 mg/kg; Phoenix Scientific, St. Joseph, MO, USA) were delivered by intraperitoneal (IP) injection. Pupils were dilated with topical 1% tropicamide and 2.5% phenylephrine (Alcon Laboratories, Ft. Worth, TX, USA).
(§2) RRD model was established by subretinal injection (SRI) of 3 μl 1% carboxymethyl cellulose (CMC; Refresh Liquigel, Allergan, Irvine, CA, USA).
(§3) NRTIs and K-9 were delivered via intraperitoneal (IP) injection in equimolar amounts. […] Kamuvudine K-9 (3-methyl-3TC, MW=273 g/mol) was administered either at a low dose (K-9L; 90 mg/kg daily) or a high dose (K-9H; 60 mg/kg twice daily, equimolar to NRTI doses). IP injection of phosphate buffered saline (PBS) was used as control.
Retinal tissue was extracted and lysed by sonication in radioimmunoprecipitation assay (RIPA) buffer (MilliporeSigma, Darmstadt, Germany). The Pierce BCA Protein Assay Kit (ThermoFisher Scientific, Waltham, MA, USA) was used to determine protein concentrations of interest. Samples were prepared that contained equal concentrations of total protein (10-100 μg). Protein samples were resolved by SDS-PAGE and transferred onto Immobilon-FL PVDF membranes (Millipore, Billerica, MA, USA). Membranes were blocked in Odyssey Blocking Buffer (PBS) for 1 hour at room temperature, and then incubated overnight with primary antibody at 4° C. Across study experiments, the following antibodies were used: anti-mouse caspase-1 (1:1000; AG-20B-0042; AdipoGen Life Sciences, San Diego, CA, USA), and anti-mouse GAPDH (1:1000; 2118; Cell Signaling, Danvers, MA, USA). […]

[1] = system: photoreceptors (TUNEL+ cells in the ONL); experiment: RRD model: TUNEL assay of the retinal outer nuclear layer; type: in vivo, mouse
Procedure: as §1, §2, §3
Retinal cross cryosections at a thickness of 10 μm were stained with TUNEL (TdT-mediated dUTP nick-end labeling) using the In Situ Cell Death Detection Kit (Roche Diagnostics, Indianapolis, IN, USA) according to the manufacturer's′ instructions. The sections were wet-mounted with ProLong anti-fade reagent with DAPI (P36935, ThermoFisher Scientific, Waltham, MA, USA) and visualized using an A1R laser confocal microscope (Nikon, Tokyo, Japan). Fourteen representative sections, including the optic nerve, were used per treatment group. To calculate the number of TUNEL+ cells in the outer nuclear layer (ONL), the retina analysis toolkit of ImageJ (2.1.0; NIH, Bethesda, MD, USA) was used.

[2] = system: participants with diabetic macular edema; settings: week 8, synthetic controls of DRCR.net Protocol T; cited from earlier work
[3] = system: participants with diabetic macular edema; experiment: Retinal central subfield thickness by spectral-domain OCT, including synthetic controls from DRCR.net Protocol T; type: in vivo, human; settings: for IPTW mixed-effect model: change in central subfield thickness, Treatment × week [8] estimate / Mixed-effect model: change in central subfield thickness, Treatment × week [8] estimate: interaction term; for IPTW mixed-effect model: change in central subfield thickness from baseline, treatment estimate (ref = Placebo) / Mixed-effect model: change in central subfield thickness from baseline, treatment estimate (ref = Placebo): main effect (week 4); for Mixed-effect model: change in central subfield thickness, Treatment × week [8] estimate / Mixed-effect model: change in central subfield thickness from baseline, treatment estimate (ref = Placebo): unweighted model
Procedure: (§4) Propensity score methods were used to select DRCR.net Protocol T study participants similar to lamivudine-treated patients. Inverse probability treatment weights (IPTW) and propensity score matching were used. To estimate the IPTW weights, a multinomial logistic regression was used to estimate propensity scores using important predictors including baseline visual acuity and baseline central subfield thickness along with age, gender, and duration of diabetes. Weights were calculated as the reciprocal of the estimated propensity score of the actual treatment received. Weights were then truncated at the 99th percentile. For the propensity score matched analysis, lamivudine-treated patients were matched to each DRCR.net Protocol T treatment arm (aflibercept, bevacizumab, ranibizumab) and placebo group, separately. Due to the limited sample size for matching within each group, propensity score models included the most important predictors of acuity change including baseline visual acuity, age and duration of diabetes.
(§5) For the IPTW analysis, a mixed-effects weighted model was fit with subject-specific random effects. […] The model's estimates, confidence intervals (CI), and P values were reported for each predictor. Additionally, model-based contrasts were conducted to compare the change in VALS from baseline between lamivudine and the Protocol T treatments.
(§6) Secondary outcomes included the change in central subfield thickness, the percentage of eyes with an improvement in VALS of 15 or more, the correlation between improvements in visual acuity and central subfield thickness, and systemic and ocular adverse events. Change in central subfield thickness was estimated using mixed-effects models, similar to the VALS analysis. To analyze a VALS improvement of at least 15 letters, logistic regression using generalized estimating equations (GEEs) was specified with an exchangeable correlation matrix. Model-based contrasts were estimated to make pairwise treatment comparisons.
In all consultations, patients underwent tomography with the Spectralis device (Heidelberg) under mydriasis. The acquisition protocol was the 6×6 mm region centered on the fovea. Data analysis from SD-OCT was restricted to the central field (1 mm in diameter) Intravitreous Injection of Anti-VEGF

[4] = system: participants with diabetic macular edema; experiment: Visual acuity (VALS) compared with synthetic controls from the DRCR.net Protocol T study (IPTW, propensity score matching, GEE); type: in vivo, human
Text: The second analysis included participants from the lamivudine versus placebo trial, along with a synthetic comparator created using data from the DRCR.net Protocol T study. The source of the data is DRCR.net (2018) A Comparative Effectiveness Study of Intravitreal Aflibercept, Bevacizumab and Ranibizumab for Diabetic Macular Edema, retrieved from https://public.jaeb.org/drcrnet/stdy/download/206. The analyses, content, and conclusions presented herein are solely the responsibility of the authors and have not been reviewed or approved by DRCR.net.
Inclusion criteria for participants from the DRCR.net Protocol T study were based on their similarity to the lamivudine versus placebo trial design. This involved selecting only patients with type 2 diabetes, study eyes with a baseline VALS<69, and complete follow-up visual acuity measurements at weeks 4 and 8.
as §4, §5
For each propensity score matched group (e.g., lamivudine-bevacizumab, lamivudine-aflibercept), a mixed effect model was fit estimating the change in visual acuity from baseline. Subject specific random effect was included along with fixed effect predictors: treatment group, baseline VALS, central subfield thickness, eye (left vs right), age, sex, race and type 2 diabetes duration.
as §6

[5] = system: participants with diabetic macular edema; settings: week 8, included DRCR.net Protocol T patients (synthetic controls); cited from earlier work
[6] = day 3 RRD, equimolar IP doses twice daily (K-9H 60 mg/kg, 3TC 50 mg/kg)
[7] = three days after inducing RRD, IP treatment
[8] = IPTW model with synthetic controls
[9] = Original (unweighted) model with synthetic controls

Row | Substance | degree of suppression of caspase-1 activation (caspase-1; [6]) [%+1%] | retinal cleaved caspase-1 compared with PBS-treated mice (caspase-1; [7]) | degree of photoreceptor protection [1, 6] [%+7%] | number of TUNEL+ cells in the ONL of the retina compared with PBS-treatment [1, 7] | percentage of eyes with VALS improvement of 15 or more that had minimal change in central subfield thickness (≤50 μm) [2] [%] | IPTW mixed-effect model: change in central subfield thickness, Treatment × week [8] estimate [3] [μm] | IPTW mixed-effect model: change in central subfield thickness from baseline, treatment estimate (ref = Placebo) [3] [μm] | Mixed-effect model: change in central subfield thickness, Treatment × week [8] estimate [3] [μm] | Mixed-effect model: change in central subfield thickness from baseline, treatment estimate (ref = Placebo) [3] [μm] | GEE model: odds ratio of change in VALS from baseline ≥15 (ref = Placebo) ([4]; IPTW model) | Mixed effect model: change from baseline visual acuity, treatment estimate (ref: Placebo) [4, 8] | Mixed effect model: change from baseline visual acuity, treatment estimate (ref: Placebo) ([4]; IPTW model with synthetic controls, listed as aflibercept) | Mixed effect model: change from baseline visual acuity, treatment estimate (ref: Placebo) [4, 9] | GEE model: odds ratio of change in VALS from baseline ≥15 (ref = Placebo) ([4]; Original model) | percentage of eyes with improvement in VALS of 15 or more [5] [%] | Mixed effect model: change from baseline visual acuity, treatment estimate (ref: Placebo) ([4]; IPTW model with synthetic controls, listed as bevacizumab) | Mixed effect model: change from baseline visual acuity, treatment estimate (ref: Placebo) ([4]; IPTW model with synthetic controls, listed as ranibizumab)
1 | 3-methyl-3TC [K-9] | 84 | dose-dependent and complete reduction; also recorded: inhibits RRD-induced caspase-1 cleavage | 56 | dose-dependent reduction; also recorded: protects photoreceptors |  |  |  |  |  |  |  |  |  |  |  |  | 
2 | Aflibercept: inhibitor of vascular endothelial growth factor (VEGF), intravitreous |  |  |  |  | 42 | 68.54 | −104.33 | 74.83 | −114.55 | 19.39 | 8.42 | 8.4 | 8.48 | 11.15 | 38 |  | 
3 | Bevacizumab: inhibitor of vascular endothelial growth factor (VEGF), intravitreous |  |  |  |  | 29 | 74.82 | −66.35 | 84.87 | −75.55 | 10.33 | 5.32 |  | 5.36 | 6.15 | 24 | 5.3 | 
4 | Ranibizumab: inhibitor of vascular endothelial growth factor (VEGF), intravitreous |  |  |  |  | 41 | 75 | −113.67 | 85.69 | −122.12 | 19.96 | 7.12 |  | 7.04 | 11.14 | 34 |  | 7.1
